{"source": "patent US5958445A", "about": "“Oral Formulations of S(+)-etodolac” (priority 1998, dated 1999)", "key": {"physchem": {"experiment": "physchem", "assay_type": "physicochemical", "experimental": "Equilibrium solubility data for S(+)-etodolac based on pH was determined by placing excess amounts of the S(+)-etodolac and about 5 mL of the dissolution medium in screw-capped vials which were covered with aluminum foil and then tumbled in a 25° C. water bath for 3 days. Slurries were filtered through […] Gelman disposable filters. Filtrates were appropriately diluted with their dissolution medium and analyzed by a Cary 210 UV-VIS spectrophotometer at 278 nm.\nThe dissolution media used for the pH-solubility profile and ionic strength effect were HCl, HAc--NaAc, KH2 PO4 --NaOH, K2 CO3 --KHCO3, H3 BO3 --NaOH, and NaOH solutions, where the ionic strengths of media were adjusted to be 0.1 by the addition of NaCl. Those solvent systems used for cosolvent solubilization were various ratios of PEG 400, ethanol, triethanolamine (TEA), and dimethylacetamide (DMA) to aqueous solutions. pH values of the slurries were measured before and after equilibrium."}, "acute pain": {"tested_on": "acute pain", "conditions": "cited from earlier work"}, "[1]": {"conditions": "Physicians' Desk Reference, 1995; cited from earlier work"}, "animal models": {"tested_on": "animal models", "conditions": "in vivo; cited from earlier work"}, "[2]": {"conditions": "in vivo; cited from earlier work"}, "[3]": {"experiment": "Solubility in words (Physicians' Desk Reference and description)", "assay_type": "physicochemical", "conditions": "acid form"}, "[4]": {"conditions": "J. Med. Chem. 1983, 26, 1778-1780; cited from earlier work"}, "[5]": {"conditions": "20% ethanol, organic solvent or mixture"}, "[6]": {"conditions": "20% peg 400, organic solvent or mixture"}, "[7]": {"conditions": "40% ethanol, organic solvent or mixture"}, "[8]": {"conditions": "40% peg 400, organic solvent or mixture"}, "[9]": {"conditions": "60% ethanol, organic solvent or mixture"}, "[10]": {"conditions": "60% peg 400, organic solvent or mixture"}, "[11]": {"conditions": "80% ethanol, organic solvent or mixture"}, "[12]": {"conditions": "80% peg 400, organic solvent or mixture"}, "[13]": {"conditions": "100% ethanol, organic solvent or mixture"}, "[14]": {"conditions": "100% triethanolamine, organic solvent or mixture"}}, "note": "Read-outs that look alike come from different tables or passages of the source.", "data": [{"compound": "CCc1cccc2c3c([nH]c12)C(CC)(CC(=O)O)OCC3", "note": "(racemic) [etodolac, (±) 1,8-diethyl-1,3,4,9-tetrahydropyrano[3,4-b]indole-1-acetic acid]", "values": [{"measurement": "solubility at 72 h", "setting": "physchem; 2% triethanolamine", "result": 37.7, "unit": "mg/mL"}, {"measurement": "solubility at 72 h", "setting": "physchem; 4% triethanolamine", "result": 75.9, "unit": "mg/mL"}, {"measurement": "solubility at 72 h", "setting": "physchem; 6% triethanolamine", "result": 122, "unit": "mg/mL"}, {"measurement": "solubility at 72 h", "setting": "physchem; 8% triethanolamine", "result": 226, "unit": "mg/mL"}, {"measurement": "solubility at 72 h", "setting": "physchem; 10% dimethylacetamide", "result": 0.468, "unit": "mg/mL"}, {"measurement": "solubility at 72 h", "setting": "physchem; 10% triethanolamine", "result": 294, "unit": "mg/mL"}, {"measurement": "solubility at 72 h", "setting": "physchem; 20% dimethylacetamide", "result": 0.956, "unit": "mg/mL"}, {"measurement": "solubility at 72 h", "setting": "physchem; [5]", "result": 0.279, "unit": "mg/mL"}, {"measurement": "solubility at 72 h", "setting": "physchem; [6]", "result": 0.905, "unit": "mg/mL"}, {"measurement": "solubility at 72 h", "setting": "physchem; 30% dimethylacetamide", "result": 2.99, "unit": "mg/mL"}, {"measurement": "solubility at 72 h", "setting": "physchem; 40% dimethylacetamide", "result": 7.28, "unit": "mg/mL"}, {"measurement": "solubility at 72 h", "setting": "physchem; [7]", "result": 2.33, "unit": "mg/mL"}, {"measurement": "solubility at 72 h", "setting": "physchem; [8]", "result": 3.58, "unit": "mg/mL"}, {"measurement": "solubility at 72 h", "setting": "physchem; 50% dimethylacetamide", "result": 34.9, "unit": "mg/mL"}, {"measurement": "solubility at 72 h", "setting": "physchem; 60% dimethylacetamide", "result": 52.1, "unit": "mg/mL"}, {"measurement": "solubility at 72 h", "setting": "physchem; [9]", "result": 23.8, "unit": "mg/mL"}, {"measurement": "solubility at 72 h", "setting": "physchem; [10]", "result": 20.2, "unit": "mg/mL"}, {"measurement": "solubility at 72 h", "setting": "physchem; 80% dimethylacetamide", "result": 2630, "unit": "mg/mL"}, {"measurement": "solubility at 72 h", "setting": "physchem; [11]", "result": 102, "unit": "mg/mL"}, {"measurement": "solubility at 72 h", "setting": "physchem; [12]", "result": 152, "unit": "mg/mL"}, {"measurement": "Solubility", "setting": "physchem; 100% dimethylacetamide, 72 h", "result": "4734.", "unit": "mg/mL"}, {"measurement": "solubility at 72 h", "setting": "physchem; [13]", "result": 234, "unit": "mg/mL"}, {"measurement": "solubility at 72 h", "setting": "physchem; 100% peg 400, organic solvent or mixture", "result": 1730, "unit": "mg/mL"}, {"measurement": "solubility at 72 h", "setting": "physchem; [14]", "result": 102, "unit": "mg/mL"}, {"measurement": "symptom relief for acute pain lasting", "setting": "acute pain; single dose of 200 mg", "result": "4 to 5", "unit": "h"}, {"measurement": "symptom relief for acute pain lasting", "setting": "acute pain; single dose of 400 mg", "result": "5 to 6", "unit": "h"}, {"measurement": "solubility in alcohols, chloroform, dimethyl sulfoxide and aqueous polyethylene glycol", "setting": "[1]", "result": "soluble"}, {"measurement": "solubility in water", "setting": "[1]", "result": "insoluble"}, {"measurement": "activities in animal models", "setting": "animal models", "result": "exhibits anti-inflammatory, analgesic, and antipyretic activities"}]}, {"compound": "CCc1cccc2c3c([nH]c12)[C@@](CC)(CC(=O)O)OCC3", "note": "[R(-) etodolac]", "values": [{"measurement": "certain purported adverse effects associated with the racemic mixture", "setting": "[2]", "result": "substantially reduces"}]}, {"compound": "CCc1cccc2c3c([nH]c12)[C@](CC)(CC(=O)O)OCC3", "note": "[S(+)-etodolac, S(+) 1,8-diethyl-1,3,4,9-tetrahydropyrano[3,4-b]indole-1-acetic acid]", "values": [{"measurement": "solubility at 72 h", "setting": "physchem; 0.001 n hcl, pH 3.24", "result": 0.073, "unit": "mg/mL"}, {"measurement": "solubility at 72 h", "setting": "physchem; 0.001 n naoh, pH 8.5", "result": 32.3, "unit": "mg/mL"}, {"measurement": "solubility at 72 h", "setting": "physchem; 0.01 m phosphate buffer, pH 6.4, aqueous buffer", "result": 4.56, "unit": "mg/mL"}, {"measurement": "solubility at 72 h", "setting": "physchem; 0.01 m phosphate buffer, pH 6.63, aqueous buffer", "result": 7.81, "unit": "mg/mL"}, {"measurement": "solubility at 72 h", "setting": "physchem; 0.04 m borate buffer, pH 8.61, aqueous buffer", "result": 11.6, "unit": "mg/mL"}, {"measurement": "solubility at 72 h", "setting": "physchem; 0.04 m phosphate buffer, pH 8.59, aqueous buffer", "result": 15.3, "unit": "mg/mL"}, {"measurement": "solubility at 72 h", "setting": "physchem; 0.1 m acetate buffer, pH 4.03, aqueous buffer", "result": 0.093, "unit": "mg/mL"}, {"measurement": "solubility at 72 h", "setting": "physchem; 0.1 m acetate buffer, pH 4.41, aqueous buffer", "result": 0.12, "unit": "mg/mL"}, {"measurement": "solubility at 72 h", "setting": "physchem; 0.1 m phosphate buffer, pH 4.63, aqueous buffer", "result": 0.193, "unit": "mg/mL"}, {"measurement": "solubility at 72 h", "setting": "physchem; 0.1 m phosphate buffer, pH 4.98, aqueous buffer", "result": 0.263, "unit": "mg/mL"}, {"measurement": "solubility at 72 h", "setting": "physchem; 0.1 m phosphate buffer, pH 5.82, aqueous buffer", "result": 1.21, "unit": "mg/mL"}, {"measurement": "solubility at 72 h", "setting": "physchem; 0.1 n hcl, pH 1.14", "result": 0.08, "unit": "mg/mL"}, {"measurement": "solubility at 72 h", "setting": "physchem; 0.1 n hcl, pH 2.13", "result": 0.08, "unit": "mg/mL"}, {"measurement": "solubility at 72 h", "setting": "physchem; 0.1 n naoh, pH 7.15", "result": 29.4, "unit": "mg/mL"}, {"measurement": "solubility at 72 h", "setting": "physchem; 0.2 n naoh, pH 7.3", "result": 58.8, "unit": "mg/mL"}, {"measurement": "solubility at 72 h", "setting": "physchem; 2% triethanolamine", "result": 39.4, "unit": "mg/mL"}, {"measurement": "solubility at 72 h", "setting": "physchem; 4% triethanolamine", "result": 77.8, "unit": "mg/mL"}, {"measurement": "solubility at 72 h", "setting": "physchem; 6% triethanolamine", "result": 126, "unit": "mg/mL"}, {"measurement": "solubility at 72 h", "setting": "physchem; 8% triethanolamine", "result": 235, "unit": "mg/mL"}, {"measurement": "solubility at 72 h", "setting": "physchem; 10% dimethylacetamide", "result": 0.468, "unit": "mg/mL"}, {"measurement": "solubility at 72 h", "setting": "physchem; 10% triethanolamine", "result": 295, "unit": "mg/mL"}, {"measurement": "solubility at 72 h", "setting": "physchem; 20% dimethylacetamide", "result": 1.25, "unit": "mg/mL"}, {"measurement": "solubility at 72 h", "setting": "physchem; [5]", "result": 0.412, "unit": "mg/mL"}, {"measurement": "solubility at 72 h", "setting": "physchem; [6]", "result": 0.663, "unit": "mg/mL"}, {"measurement": "solubility at 72 h", "setting": "physchem; 30% dimethylacetamide", "result": 3.56, "unit": "mg/mL"}, {"measurement": "solubility at 72 h", "setting": "physchem; 40% dimethylacetamide", "result": 9.96, "unit": "mg/mL"}, {"measurement": "solubility at 72 h", "setting": "physchem; [7]", "result": 3.53, "unit": "mg/mL"}, {"measurement": "solubility at 72 h", "setting": "physchem; [8]", "result": 3.06, "unit": "mg/mL"}, {"measurement": "solubility at 72 h", "setting": "physchem; 50% dimethylacetamide", "result": 89.1, "unit": "mg/mL"}, {"measurement": "solubility at 72 h", "setting": "physchem; 60% dimethylacetamide", "result": 256, "unit": "mg/mL"}, {"measurement": "solubility at 72 h", "setting": "physchem; [9]", "result": 43.7, "unit": "mg/mL"}, {"measurement": "solubility at 72 h", "setting": "physchem; [10]", "result": 16.3, "unit": "mg/mL"}, {"measurement": "solubility at 72 h", "setting": "physchem; 80% dimethylacetamide", "result": 419, "unit": "mg/mL"}, {"measurement": "solubility at 72 h", "setting": "physchem; [11]", "result": 126, "unit": "mg/mL"}, {"measurement": "solubility at 72 h", "setting": "physchem; [12]", "result": 643, "unit": "mg/mL"}, {"measurement": "solubility at 72 h", "setting": "physchem; 100% dimethylacetamide, organic solvent or mixture", "result": 758, "unit": "mg/mL"}, {"measurement": "solubility at 72 h", "setting": "physchem; [13]", "result": 284, "unit": "mg/mL"}, {"measurement": "Solubility", "setting": "physchem; 100% peg 400, 72 h", "result": "3460.", "unit": "mg/mL"}, {"measurement": "solubility at 72 h", "setting": "physchem; [14]", "result": 81.7, "unit": "mg/mL"}, {"measurement": "solubility in alcohols, dimethyl sulfoxide, propylene glycol and aqueous polyethylene glycols", "setting": "[3]", "result": "soluble"}, {"measurement": "share of the effects of etodolac due to the enantiomer", "setting": "[4]", "result": "virtually all of the effects of etodolac are due to the S(+) enantiomer"}]}]}
